Experimental data published in patent publication US6692927B2, “Bax degradation involvement in tumor survival and progression” (University of South Florida, priority 2000, dated 2004).
Where a SMILES comes first, the peptide text is derived from it. [ ]: non-standard residue; d: D form. The star is where a group is joined. Nle = CCCC[C@H](N)C(=O)O; Cbz = O=C(OCc1ccccc1)*

Key:
[1] = system: simian virus 40-transformed and parental normal human fibroblasts; conditions: but not the parental normal; cited from earlier work
[2] = system: human Jurkat T cells overexpressing Bcl-2 and human prostate, breast, tongue and brain tumor cell lines; conditions: cited from earlier work; for apoptosis induction / cell kill: low concentrations, same conditions for etoposide
Bax degradation activity = experiment: cell-free Bax degradation assay, inhibitor added to MCF-7 cell extract; format: biochemical, human; conditions: 10-minute preincubation of MCF-7 cell extract with inhibitor (100 mM per FIG. 9C legend), 37° C., 4 h
Method: (§1) FIGS. 9A-9F show Bax degradation depends on ubiquitination, proteasome and ATP. (FIG. 9A) Jurkat cells (0 h) were treated with either 50 μM LLnV or 10 μM lactacystin, followed by preparation of Bax immunoprecipitates (with clone 6A7), which were immunoblotted with an ubiquitin antibody. Positions of putative ubiquitinated Bax proteins (p47, p55) are indicated at left. The nature of the ˜30 kDa and ˜84 kDa remains unclear. (FIG. 9B) The [^35S]-labeled Bax (upper) or Bcl-2 (lower) protein (1 μl) were incubated at 37° C. for 2 h with either buffer Z only (lane 1) or […] protein extract of MCF-7 cells grown exponentially (lane 2) or pretreated for 8 h with […] LLnV (lane 3). (FIG. 9C) The [^35S]-labeled Bax protein (1 μl) was incubated with either buffer Z only (lane 1) or 100 μg MCF-7 cell lysate at 37° C. for 4 h, in the presence of an indicated inhibitor (100 mM; lanes 3-8) or an equal volume of DMSO (lane 2) in buffer Z. A weak band of ˜16 kDa (indicated by an arrow) is probably an intermediate product of proteasome-mediated Bax degradation. (FIG. 9D) The proteasome in MCF-7 whole cell lysate (W lys, lane 1) was precipitated by using either ultraspin (ULS) or a proteasome subunit a6 antibody (IP). Both supernatant (lanes 2, 4) and pellet (lanes 3, 5) fractions were examined by Western blot assay using antibody to the proteasome a6 subunit (MW 33 kDa). (FIG. 9E) Bax degradation assay was performed as in FIG. 9B, with addition of buffer Z (lane 1) or 100 μg protein from MCF-7 whole cell lysate (lane 2), ultraspun supernatant (lane 3) or plus the pellet (lane 4), immunodepleted supernatant (lane 5) or plus a purified 20S proteasome ([…]; lane 6), or the purified proteasome alone (2 μg; lane 7). (FIG. 9F) Bax degradation assay was performed as in FIG. 9B, in the absence (lane 3) or presence of 10 mM ATP (lane 2) or 10 mM ATP-y-S (lane 4).
In vitro Bax Degradation Assay: Human Bax-a cDNA subcloned into pcDNA3 was a gift from Dr. Hong-gang Wang. Human full length of bcl-2-a cDNA was cloned from Jurkat T cells and subcloned into pcDNA3.1(−) as described+. Both bax and bcl-2 plasmids were used for coupled in vitro transcription/translation (Promega; Madison, Wis.) in the presence of [^35S]methionine (Amersham Pharmacia Biotech; Piscataway, N.J.). Protein extracts were prepared from either MCF-7 cells or prostate tumor tissues in buffer Y (50 mM Tris-HCl, pH 7.4, 250 mM NaCl, 1% Triton X-100, 0.1% SDS, 1 mM EDTA), and used for Bax (or Bcl-2) degradation assay. Briefly, 1 microl of [^35S]-labeled Bax (or Bcl-2) protein was incubated at 37° C. for 2-4 hours with 100-200 microg protein extract in buffer Z (50 mM Tris-HCl, pH 7.4, 5 mM MgCl2, 3 mM DTT, 10 mM ATP, 10 mM phosphocreatine, 10 microg/ml creatine phosphokinase, 10 microg/ml aprotinin, 10 microg/ml leupeptin, 10% glycerol and 2 microg/ml ubiquitin). After incubation, the samples were subjected to gel electrophoresis and autoradiography. Under the cell-free assay conditions, the calpain-mediated Bax cleavage activity was blocked by omission of calcium and addition of the protease inhibitor leupeptin (Wood et al, 1998). To deplete the proteasome, MCF-7 cell lysates were either immunoprecipitated with the 20S proteasome subunit a6 antibody or ultracentrifugated at 100,000×g for 6 hours. The proteasome-enriched pellet fraction was resuspended in buffer Y.
To further study the proteasome activity that degrades Bax protein, a cell-free Bax degradation assay was developed by using an in vitro-translated, [^35S]-labeled Bax protein as substrate (FIG. 9B, upper, lane 1). The Bax degradation activity is present in protein extracts prepared from exponentially growing MCF-7 (FIG. 9), K562, VA-13, WI-38, Jurkat T or HL-60 cells. The labeled Bax was almost completely degraded by a MCF-7 cell extract after 2 to 4 hours incubation at 37° C. (FIG. 9B, upper, and FIG. 9C, lanes 2 vs. 1). […]

Jurkat T cells = experiment: Western blot and Bax IP/ubiquitin blot in Jurkat T cells; format: cell-based, human; conditions: 50 microM
Method: FIGS. 8A-8D show proteasome inhibition accumulates Bax to mitochondria/cytoplasm and increases interaction between Bax and Bcl-2 proteins. Jurkat cells (0 h; FIG. 8A and FIG. 8B) or Jurkat cells overexpressing Bcl-2 (0 h; FIG. 8C and FIG. 8D) were treated by either 10 μM lactacystin (FIGS. 8A-8C), 50 μM LLnV (FIG. 8D), or 50 μM LLM (FIG. 8A and FIG. 8B) for the indicated hours. (FIG. 8A and FIG. 8B) Western blotting with antibodies to PARP and Bax were performed as described in FIG. 7. (FIG. 8C) Immunohistochemistry (see MATERIALS AND METHODS). Localization of Bax protein (green) and nuclei (red) are shown. (FIG. 8D) Bax immunoprecipitates, prepared by an agarose-conjugated N-20 Bax antibody, were immunoblotted first with the 6A7 Bax antibody (upper) and then reblotted with a Bcl-2 antibody (lower).
as §1, with “4). […]” for “4).”

normal WI-38 cells = experiment: PARP cleavage, cytochrome c release, Bax and p21 in normal fibroblasts; format: cell-based, human; conditions: LLnL at up to 200 microM, 14 hours
Excerpt: Proteasome inhibitors activate Bax- and cytochrome c-dependent apoptosis pathway preferentially in transformed human fibroblasts. Normal human fibroblasts are more resistant to proteasome inhibitor-induced apoptosis than transformed and cancer cells (An et al., in press). This is probably due to inability of the normal cells to accumulate Bax protein in response to proteasome inhibition, and consequently failure to release cytochrome c. To test this hypothesis, both SV40-transformed and normal WI-38 cells were treated with 50 microM LLnV for up to 24 hours, followed by measurement of PARP cleavage, cytochrome c release and Bax accumulation. […] In contrast, only after 24 hours treatment, low levels of p85/PARP fragment and cytosolic cytochrome c were detected in normal WI-38 cells (FIGS. 1, A, B, lanes 8-14). […] The levels of Bax/p21 were increased at as early as 4 hours and remained high afterwards. […] The level of another band of ˜47 kDa increased at 4 hours, further increased between 6 and 12 hours, and then decreased (FIG. 1C). The p70 and p47 bands can contain ubiquitinated forms of Bax since similar polypeptides were detected by antibodies to both Bax and ubiquitin (Li et al., 1999). […] Therefore, although unable to activate the Bax- and cytochrome c-dependent apoptotic pathway in response to a low concentration of a proteasome inhibitor, normal cells are capable of undergoing Bax- and cytochrome c-independent apoptosis in response to a proteasome inhibitor at higher concentrations.
SV40-transformed (VA-13) and normal WI-38 cells were treated with 50 microM LLnV or DMSO (letter D) for up to 24 hours, followed by measurement of PARP cleavage (A), cytochrome c release (B) and Bax accumulation (C; also see FIG. 2). Panel D, exponentially grown VA-13 cells were pretreated with 50 microM LLnV or DMSO for 1 hour, washed with methionine-free medium, and then incubated for 30 minutes in methionine-free medium plus 50 microM LLnV (or DMSO). This was followed by replacing fresh methionine-free medium containing 150 microCi/ml of [^35S]-methionine, 10% dialyzed FBS and 50 microM LLnV (or DMSO). Cells were further incubated for 6 hours, followed by preparation of [^35S]-labeled protein lysates and Bax immunoprecipitates (6A7, PharMingen). The labeled Bax bands are indicated. […] Bax-alpha subcloned into pcDNA3 was used for coupled in vitro transcription/translation in the presence of [^35S]methionine. For Bax cleavage assay, the whole cell extracts were prepared. The [^35S]-labeled Bax (0.7 microl) was incubated with 50 microg protein in assay buffer (containing 50 microM LLM and no Ca^2+) for 4 hours at 37° C. Following incubation, the samples were subjected to SDS gel electrophoresis and autoradiography.

Compound | Bax degradation process/activity (Bax degradation activity) | further results
CC(C)C[C@@H](C=O)NC(=O)[C@H](CCCN=C(N)N[N+](=O)[O-])NC(=O)C(CCCCCCCCN1C(=O)c2ccccc2C1=O)C1CCCC1 (some centres unmarked) [CEP1612] |  | p27 accumulation and apoptosis [1]: selectively accumulates p27 and induces apoptosis; cyclin-dependent kinase inhibitors p21 and p27 ([2]; associated with CEP1612-induced apoptosis): accumulation of the cyclin-dependent kinase inhibitors p21 and p27; apoptosis induction / cell kill [2]: rapidly induces apoptosis
CC(C)C[C@@H](C=O)NC(=O)[C@H](CC(C)C)NC(=O)[C@H](CC(C)C)NC(=O)OCc1ccccc1 [LLL] (Cbz-Leu-Leu-Leu-aldehyde) | blocked | 
CSCCC(C=O)NC(=O)C(CC(C)C)NC(=O)C(CC(C)C)NC(C)=O (stereo not drawn) [LLM] (Ac-Leu-Leu-Met-aldehyde; configuration not given here) | not | Bax accumulation and PARP cleavage (Jurkat T cells): had no such effects
CCCC[C@@H](C=O)NC(=O)[C@H](CC(C)C)NC(=O)[C@H](CC(C)C)NC(C)=O [LLnL] (Ac-Leu-Leu-[Nle]-aldehyde) | blocked | apoptosis as judged by PARP cleavage (normal WI-38 cells): underwent apoptosis; cytochrome c release and Bax accumulation (normal WI-38 cells): neither release cytochrome c nor accumulate Bax; levels of the cdk inhibitor p21 (normal WI-38 cells): significantly increased
CCN1C(=O)C=CC1=O [N-ethylmaleimide] | not inhibited | 
CC(=O)N[C@@H](CC(=O)O)C(=O)N[C@@H](CCC(=O)O)C(=O)N[C@H](C(=O)N[C@@H](CC(=O)O)C(=O)CF)C(C)C [acetyl-DEVD-fluoromethyl ketone] | not inhibited | 
CC(=O)N[C@@H](Cc1ccc(O)cc1)C(=O)N[C@H](C(=O)N[C@@H](C)C(=O)N[C@@H](CC(=O)O)C(=O)CCl)C(C)C [acetyl-YVAD-chloromethyl ketone] | not inhibited | 
CC(C)[C@H](O)[C@@]12NC(=O)[C@H](C)[C@@H]1OC2=O [b-lactone, clasto-lactacyctin b-lactone] | blocked | 
N=C(N)c1ccccc1 [benzamidine] | not inhibited | 
COc1cc([C@@H]2c3cc4c(cc3[C@@H](O[C@@H]3O[C@@H]5CO[C@@H](C)O[C@H]5[C@H](O)[C@H]3O)[C@H]3COC(=O)[C@H]23)OCO4)cc(OC)c1O [etoposide] |  | apoptosis induction / cell kill [2]: fails to kill these cells
CC(=O)N[C@@H](CC(C)C)C(=O)N[C@@H](CC(C)C)C(=O)N[C@H](C=O)CCCNC(=N)N [leupeptin] | not inhibited | 
O=S(=O)(F)Cc1ccccc1 [phenylmethylsulfonyl fluoride] | not inhibited | 
aprotinin | not inhibited | 
tosyl-L-lysine chloromethyl ketone | not inhibited | 
